In patent publication US10266529B2, “Salts, co-crystals, and polymorphs of an anxiolytic compound” (Bionomics Limited, priority 2013, dated 2019):
Values after ≈ are worked out from the molar mass of the structure shown.

Key:
Type in all cases: physicochemical
[1] = Stability of amorphous material under ambient conditions (re-examination by XRPD)
Description: The amorphous material appears to be stable for at least 5 days under ambient conditions, as it was unchanged after re-examination by XRPD (data not shown).

[2] = DVS (dynamic vapor sorption) isotherm / hygroscopicity
Method: Projekt Messtechnik Sorptions Prüfsystem SPS 11-100n or Surface Measurement Systems DVS-1. The sample was placed on an aluminum or platinum holder on top of a microbalance and allowed to equilibrate for 2 h at 50% r.h. before starting one of two pre-defined humidity programs: • (1) 2 h at 50% r.h.; • (2) 50→0% r.h. […] (5%/h); 5 h at 0% r.h.; and • (4) 0→50% r.h. (5%/h); 2 h at 50% r.h.

[3] = Aqueous solubility determination (2 h equilibration in doubly distilled water, HPLC)
Method: Approximately 0.3 mL of doubly distilled water was added to 3-10 mg of the substance to be measured. The resulting suspension/solution was equilibrated in a temperature-controlled Eppendorf Thermomixer Comfort shaker for 2 h at 25° C. at a shaking rate of 500 rpm. The solid phase was recovered by filter centrifugation (0.10-μm PVDF membrane) and examined by FT-Raman spectroscopy. The pH of the corresponding solution was determined with a Metrohm 713 pH meter. The concentration of the solution was determined by HPLC (see below).
Standard solutions of the SP196-FD-P1 free drug of compound 1 and the L-malate salt of compound 1 (SP196-MLA-P4) were prepared in the concentration range of 0.2-0.05 mg/mL for the construction of a calibration curve.

[4] = Suspension equilibration experiments (thermodynamically stable polymorphic form); settings: at least in the temperature range from 25° C. to 60° C.
Method: Suspension equilibration experiments in a variety of different solvents and solvent mixtures were carried out at various temperatures.
In addition, the use of high temperatures can help overcome kinetic barriers to polymorphic interconversion.
The experiments at 5° C. were carried out to search for solvated (and additional hydrated) forms of compound 1 since experiments at low temperatures are conducive to solvate and hydrate formation.
The amorphous material was used as the starting material for several suspension equilibration experiments (temperature=5° C., 30° C., 75° C., or 90° C.; duration=1 d, 5 d, or 7 d; solvent=THF, 96:4 acetone/H2O, 98.5/1.5 acetone/H2O, 2-PrOH, or water). Since the amorphous form is in a higher energy state than the crystalline form of the starting material compound 1, potential kinetic barriers might not poses as much of a hindrance for a transformation. The amorphous form of compound 1 was used as starting material for experiments to determine the stability range of compound 1 by equilibration at various water activity levels.
Upon completion of the suspension equilibration experiments, the recovered products were examined by Raman spectroscopy both immediately after filtration and after 30 min of drying under vacuum at room temperature. […]

Row | stability of the amorphous material (unchanged by XRPD) [1] | DVS final mass above the starting mass ([2]; after return from 95% r.h. to 50% r.h.) | DVS reversible mass loss ([2]; decreasing relative humidity from 50% r.h. to 0%) [wt %] | DVS mass increase ([2]; from 50% to 85% r.h.) [wt %] | DVS (total) mass increase ([2]; increasing relative humidity from 50% r.h. to 95% r.h.) [wt %] | FT-Raman spectrum of the solid residue after aqueous solubility determination ([3]; after 2 h equilibration at 25° C. in water) | solubility at 2 h ([3]; doubly distilled water, 25 °C, pH 7.5, water, thermodynamic from solid, after 2 h equilibration at 25° C., pH=7.5 of saturated solution) [µg/mL] | Structure (SMILES) | hygroscopicity classification ([2]; based on mass gain at 85% r.h.) | FT-Raman spectrum of the material after the DVS measurement ([2]; solid form after DVS cycle) | thermodynamic stability of the polymorph [4]
1 | at least 5 days | – | – | – | – | – | – | CCn1cc(C(=O)N2CCOCC2)c(=O)c2cc(NC3Cc4ccccc4C3)cnc21 [Form A, 1-ethyl-6-(indan-2-ylamino)-3-(morpholine-4-carbonyl)-1,8-naphthyridin-4-one] | – | – | –
2 | – | equal to the starting mass | ~0.3 | ~0.2 | ~0.6 | unchanged | ~40 (≈ 95.6 µM) | CCn1cc(C(=O)N2CCOCC2)c(=O)c2cc(NC3Cc4ccccc4C3)cnc21 [Form C, 1-ethyl-6-(indan-2-ylamino)-3-(morpholine-4-carbonyl)-1,8-naphthyridin-4-one] | slightly hygroscopic (slightly hygroscopic (mass increase<2% and ≥0.2%)) | corresponds to the spectrum of the material before the DVS measurement | thermodynamically stable polymorph
3 | – | – | – | – | – | – | – | CCn1cc(C(=O)N2CCOCC2)c(=O)c2cc(NC3Cc4ccccc4C3)cnc21 [Form D, 1-ethyl-6-(indan-2-ylamino)-3-(morpholine-4-carbonyl)-1,8-naphthyridin-4-one] | – | – | thermodynamically less stable than Form C
